The results in this text go back to patent US20220144823A1, “PYRAZOLOPYRIDINE DERIVATIVES AS INHIBITORS OF PASK” (Galapagos NV, priority 2019, published 2022).

Structures are written as SMILES. A value given as a limit tells only on which side of the number the result lay.

The target in test [1] is T1, human PASK (Homo sapiens, UniProt Q96RG2).
T1 construct: purchased ThermoFisher Scientific PR7013A
Kind of test: ADP-Glo kinase assay. The class given is biochemical. The settings on record: ADPGlo PASK kinase assay, 25 μM ATP, ZIPtide 25 μM. In short, it runs like this:
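Human recombinant PASK phosphorylating ZIPtide peptide with ATP, 120 min at RT; compounds in 10-point 1/5 dilution series, 1% DMSO final. ADP formed measured by ADP-Glo luminescence after ATP depletion; percent inhibition fitted to dose-response curves for averaged IC50.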
Background: In ADP-Glo the light output rises with the ADP produced.

In test [2] the target is T1, human PASK. The test can be described thus: 33P radioactive kinase assay. The class given is biochemical. The settings on record: 33P radioactive PASK kinase assay, 10 μM ATP, ZIPtide 1 μM. In short, it runs like this: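 Human PASK phosphorylation of ZIPtide peptide was measured by incorporation from [^33P]-ATP plus unlabelled ATP, with a 10-point, 1/5 dilution series from 0.2 or 2 mM DMSO stocks and 1% DMSO final. Reactions were stopped with phosphoric acid, filter-harvested, washed and scintillation-counted. Percentage inhibition gave dose–response curves and averaged IC50s.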

Test [3] has as its target T2, autophosphorylation of PASK at position Thr307 in Hek293 cells overexpressing PASK (Homo sapiens, UniProt Q96RG2).
T2 construct: expressed in transfected cells; host or cells: Hek293
Kind of test: PASK autophosphorylation ELISA assay. It counts as cell-based. The note with it: 24 h, ELISA readout. Here is the method: The compounds of the invention are profiled in a cellular assay to determine their capacity to reduce the autophosphorylation levels of PASK at position Thr307 in Hek293 cells overexpressing PASK, using an ELISA-based readout.
At day 1, a 96-well cell assay plate is coated with poly-D-lysine (50 μL/well of a 0.05 mg/mL solution in PBS) and incubated for 1 h at 37° C. The plate is subsequently washed once with PBS and stored dry at RT until further use. Hek293 cells are transfected with a pcDNA3.1-PASK(FL,WT)-FLAG construct (SEQ ID1) and seeded in culture medium (DMEM+10% FBS) in a poly-D-lysine coated 96-well plate (0.3 μL JetPEI DNA transfection reagent (Polyplus-transfection SA, Cat #101-40), 10 ng construct and 90 ng pBluescript, 60000 cells per well). […] The cell plate is incubated overnight at 37° C., 5% CO2.
At day 2, the medium of the assay plate is removed and 100 μL of fresh medium (DMEM+10% FBS) is added to the plate. Cell plate is further incubated overnight at 37° C., 5% CO2. This to allow further expression of PASK protein.
At day 3, the medium is removed and replaced with 100 μL of serum free medium (DMEM). Test compound is added to the plate (8 points concentration curve with 1/3 dilution steps starting from 30 μM final concentration in 0.3% DMSO final). In the positive and negative control wells of the plate, 0.3% DMSO final is added. For each tested condition, duplicates are made for ELISA readout. Cell plate is incubated 24 h at 37° C., 5% CO2.
At day 4, the medium is removed and the plate is washed once with 100 μL/well PBS. Cells are lysed by adding 50 μL/well western blot lysis buffer (20 mM Tris pH 7.5, 150 mM NaCl and 1% Triton) to the plate. The assay plate is stored at −80° C. and thawed to perform the ELISA readout.
At day 1, the ELISA plate is coated with the mouse anti-FLAG antibody (2 μg/mL diluted in PBS, 100 μL/well) and incubated overnight at 4° C.
At day 2, the plate is washed once with 150 μL/well PBS. 200 μL/well blocking buffer (PBS with 3% BSA) is added and the plate is incubated for 4 h at RT. The plate is washed with 150 μL/well high salt washing buffer (20 mM Na2HPO4, 0.5% Triton X-100, 0.1% SDS, 0.1% BSA and 1 M NaCl) followed by one wash with 150 μL/well low salt washing buffer (20 mM Na2HPO4, 0.5% Triton X-100, 0.1% SDS, 0.1% BSA and 150 mM NaCl). Meanwhile, the cell lysate plate is thawed, two wells of the same condition are pooled (2×50 μL) and added to the ELISA plate. The ELISA plate is incubated overnight at 4° C.
At day 3, the ELISA plate is washed twice with 150 μL/well high salt washing buffer followed by two washes with low salt washing buffer. 100 μL/well detection antibody for pPASK (phospho-Akt substrate (RXXS*/T*) (110B7E) rabbit antibody (Cell Signaling Technology, Inc., Cat #9614) 2 μg/mL diluted in PBS with 3% BSA and 1×Halt™ protease and phosphatase inhibitor cocktail (Thermo Fisher Scientific, Inc., Cat #78447)) is added and incubated for 2 h at RT. The plate is washed twice with high and low salt wash buffer (150 μL/well) and 100 μL/well of an HRP antibody (swine anti-rabbit HRP antibody (Agilent Technologies, Inc., Cat #P039901) diluted 1/2000 in PBS with 3% BSA and 1×Halt™ protease and phosphatase inhibitor cocktail) is added to the plate, followed by an incubation for 1 h at RT in the dark (plate sealed with aluminum seal). The plate is washed twice with high and low salt wash buffer (150 μL/well) and 100 μL/well of SuperSignal™ ELISA Pico Chemiluminescent Substrate (Thermo Fisher Scientific, Inc., Cat #37070)(premix part 1 and part 2, 1/1) is added. The plate is incubated for 4 min at RT before measuring luminescence on the Luminoskan™ Ascent (Thermo Fisher Scientific, Inc.) (PMT default voltage; 100 ms integration time). […]

T1 sequence (Q96RG2 whole entry): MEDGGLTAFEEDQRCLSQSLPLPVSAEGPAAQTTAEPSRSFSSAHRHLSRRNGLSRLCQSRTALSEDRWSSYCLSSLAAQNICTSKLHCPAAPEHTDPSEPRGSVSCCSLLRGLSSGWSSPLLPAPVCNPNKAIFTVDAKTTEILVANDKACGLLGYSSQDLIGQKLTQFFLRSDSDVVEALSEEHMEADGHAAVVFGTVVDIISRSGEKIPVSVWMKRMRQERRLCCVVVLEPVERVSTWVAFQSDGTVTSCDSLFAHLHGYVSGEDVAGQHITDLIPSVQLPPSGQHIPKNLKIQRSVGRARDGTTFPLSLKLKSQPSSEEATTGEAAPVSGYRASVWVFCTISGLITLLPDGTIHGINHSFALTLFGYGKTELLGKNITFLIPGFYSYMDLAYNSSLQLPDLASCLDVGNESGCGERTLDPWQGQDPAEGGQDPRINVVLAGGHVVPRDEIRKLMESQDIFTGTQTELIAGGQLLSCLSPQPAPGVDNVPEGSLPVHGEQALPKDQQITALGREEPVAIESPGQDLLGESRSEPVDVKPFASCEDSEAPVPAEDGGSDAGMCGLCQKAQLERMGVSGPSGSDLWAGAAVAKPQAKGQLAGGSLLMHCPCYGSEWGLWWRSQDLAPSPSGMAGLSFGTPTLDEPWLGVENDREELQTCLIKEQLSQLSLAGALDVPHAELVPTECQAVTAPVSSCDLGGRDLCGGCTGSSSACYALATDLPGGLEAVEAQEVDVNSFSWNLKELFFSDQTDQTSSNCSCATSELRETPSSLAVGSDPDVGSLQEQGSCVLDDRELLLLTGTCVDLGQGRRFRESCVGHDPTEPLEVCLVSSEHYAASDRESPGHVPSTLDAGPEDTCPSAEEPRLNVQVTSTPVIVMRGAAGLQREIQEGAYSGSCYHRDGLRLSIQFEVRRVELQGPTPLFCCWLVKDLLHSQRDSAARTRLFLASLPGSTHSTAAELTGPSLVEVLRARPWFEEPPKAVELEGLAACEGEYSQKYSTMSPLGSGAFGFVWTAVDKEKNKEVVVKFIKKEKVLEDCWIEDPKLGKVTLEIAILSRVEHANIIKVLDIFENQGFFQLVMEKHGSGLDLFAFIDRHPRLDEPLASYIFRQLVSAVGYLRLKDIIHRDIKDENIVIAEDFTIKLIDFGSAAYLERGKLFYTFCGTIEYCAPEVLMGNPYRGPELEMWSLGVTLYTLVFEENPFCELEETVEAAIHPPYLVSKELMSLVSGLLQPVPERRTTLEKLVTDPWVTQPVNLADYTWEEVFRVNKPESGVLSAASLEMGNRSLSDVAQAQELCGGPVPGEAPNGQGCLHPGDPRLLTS
T2 sequence (Q96RG2 with tags, fused parts or gaps): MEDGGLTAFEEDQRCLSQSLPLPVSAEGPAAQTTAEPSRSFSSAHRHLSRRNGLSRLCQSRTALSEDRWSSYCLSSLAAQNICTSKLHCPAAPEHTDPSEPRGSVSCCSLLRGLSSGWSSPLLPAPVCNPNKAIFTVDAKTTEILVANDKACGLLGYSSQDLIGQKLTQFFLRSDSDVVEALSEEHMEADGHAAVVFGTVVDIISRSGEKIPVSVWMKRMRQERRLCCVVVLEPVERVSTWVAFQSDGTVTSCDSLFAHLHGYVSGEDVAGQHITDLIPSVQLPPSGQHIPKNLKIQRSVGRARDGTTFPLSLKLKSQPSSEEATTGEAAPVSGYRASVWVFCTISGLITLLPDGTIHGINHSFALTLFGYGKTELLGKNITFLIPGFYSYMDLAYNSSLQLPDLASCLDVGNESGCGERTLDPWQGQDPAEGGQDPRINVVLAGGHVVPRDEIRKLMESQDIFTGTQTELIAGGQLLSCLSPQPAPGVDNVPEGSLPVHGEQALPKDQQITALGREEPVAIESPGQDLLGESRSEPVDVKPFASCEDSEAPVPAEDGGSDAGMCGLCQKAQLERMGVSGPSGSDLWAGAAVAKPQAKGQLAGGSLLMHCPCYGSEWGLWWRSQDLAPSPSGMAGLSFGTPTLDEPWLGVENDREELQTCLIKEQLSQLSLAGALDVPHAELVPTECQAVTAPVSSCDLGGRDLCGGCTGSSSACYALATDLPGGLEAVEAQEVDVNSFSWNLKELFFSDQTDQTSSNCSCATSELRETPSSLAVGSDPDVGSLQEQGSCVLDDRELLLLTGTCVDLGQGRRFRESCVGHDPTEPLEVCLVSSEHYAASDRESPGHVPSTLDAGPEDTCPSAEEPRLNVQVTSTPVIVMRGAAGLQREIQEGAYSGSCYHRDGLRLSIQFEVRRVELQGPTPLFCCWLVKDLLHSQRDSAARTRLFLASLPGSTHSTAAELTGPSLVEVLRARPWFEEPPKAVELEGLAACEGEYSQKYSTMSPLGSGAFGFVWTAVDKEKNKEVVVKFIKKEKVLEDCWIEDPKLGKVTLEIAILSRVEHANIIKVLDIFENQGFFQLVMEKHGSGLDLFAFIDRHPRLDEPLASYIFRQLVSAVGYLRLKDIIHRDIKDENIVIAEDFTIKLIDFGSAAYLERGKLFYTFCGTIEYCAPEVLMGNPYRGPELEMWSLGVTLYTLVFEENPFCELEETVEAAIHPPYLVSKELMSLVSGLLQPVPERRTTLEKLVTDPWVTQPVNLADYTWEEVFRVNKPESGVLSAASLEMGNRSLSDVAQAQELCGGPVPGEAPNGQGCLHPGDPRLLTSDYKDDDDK

As for `Cc1nn(C)c(C)c1-c1cnn2ccc(-c3cc(C(=O)O)co3)cc12` [Cpd 2, 5-[3-(1,3,5-trimethylpyrazol-4-yl)pyrazolo[1,5-a]pyridin-5-yl]furan-3-carboxylic acid], the half-inhibitory concentration (IC50) (as a rule, the point on the concentration scale where inhibition reaches its midpoint) against human PASK [1] lay within 0.01 to 10 nM; at human PASK [2] it was 0.01 to 10 nM; in test [3], 500 to 1000 nM.

With `Cc1nn(CC(F)(F)F)c(C)c1-c1cnn2ccc(-c3nc(C4CC4)c(C(=O)O)s3)cc12` [Cpd 42, 4-cyclopropyl-2-[3-[3,5-dimethyl-1-(2,2,2-trifluoroethyl)pyrazol-4-yl]pyrazolo[1,5-a]pyridin-5-yl]thiazole-5-carboxylic acid], the results for the IC50 (on human PASK [1]; at human PASK [2]; in test [3]) were 0.01 to 10 nM, 0.01 to 10 nM and 0.1 to 500 nM, respectively.

With `Cc1nn(C)c(C)c1-c1cnn2ccc(-c3cc(C(N)=O)co3)cc12` [Cpd 43, 5-[3-(1,3,5-trimethylpyrazol-4-yl)pyrazolo[1,5-a]pyridin-5-yl]furan-3-carboxamide], the results for the half-maximal inhibitory concentration (IC50) (at human PASK [1]; at human PASK [2]; in test [3]) were 0.01 to 10 nM, 0.01 to 10 nM and 1000 to 5000 nM, respectively.

For `CCn1nc(C)c(-c2cnn3ccc(-c4nc(C5CC5)c(C(=O)O)s4)cc23)c1C` [Cpd 38, 4-cyclopropyl-2-[3-(1-ethyl-3,5-dimethyl-pyrazol-4-yl)pyrazolo[1,5-a]pyridin-5-yl]thiazole-5-carboxylic acid], the figures for the IC50 (against human PASK [1]; on human PASK [2]; in test [3]) were 0.01 to 10 nM, 0.01 to 10 nM and 0.1 to 500 nM, respectively.

On to `CCn1nc(C)c(-c2cnn3ccc(-c4cc(C(=O)O)co4)cc23)c1C` [Cpd 28, 5-[3-(1-ethyl-3,5-dimethyl-pyrazol-4-yl)pyrazolo[1,5-a]pyridin-5-yl]furan-3-carboxylic acid], for which the IC50 at human PASK [1] is 0.01 to 10 nM; on human PASK [2] it was 0.01 to 10 nM; in test [3], 500 to 1000 nM.

Take `CCOc1nc(-c2ccn3ncc(-c4c(C)nn(C)c4C)c3c2)sc1C(=O)O` [Cpd 9, 4-ethoxy-2-[3-(1,3,5-trimethylpyrazol-4-yl)pyrazolo[1,5-a]pyridin-5-yl]thiazole-5-carboxylic acid]: the IC50 was 0.01 to 10 nM at human PASK [1], 0.01 to 10 nM on human PASK [2] and 500 to 1000 nM in test [3].

Take `Cc1nn(C(C)C)c(C)c1-c1cnn2ccc(-c3nc(C4CC4)c(C(=O)O)s3)cc12` [Cpd 39, 4-cyclopropyl-2-[3-(1-isopropyl-3,5-dimethyl-pyrazol-4-yl)pyrazolo[1,5-a]pyridin-5-yl]thiazole-5-carboxylic acid]: the values for the IC50 (at human PASK [1]; on human PASK [2]; in test [3]) were 0.01 to 10 nM, 0.01 to 10 nM and 0.1 to 500 nM, respectively.

On to `COc1nc(-c2ccn3ncc(-c4c(C)nn(C)c4C)c3c2)sc1C(=O)O` [Cpd 8, 4-methoxy-2-[3-(1,3,5 trimethylpyrazol-4-yl)pyrazolo[1,5-a]pyridin-5-yl]thiazole-5-carboxylic acid], for which the IC50 is 0.01 to 10 nM against human PASK [1], 0.01 to 10 nM on human PASK [2] and above 5000 nM in test [3].
